# Target: T1, GST-tagged truncated human mutant G2019S LRRK2 (Homo sapiens, UniProt Q5S007, G2019S)
# T1 construct: GST-tagged truncated human mutant G2019S LRRK2; purchased Life Technologies Corporation (Carlsbad, CA)
# Assay: LRRK2 G2019S Km ATP LanthaScreen assay
# Assay type: biochemical
# Conditions: 134 μM ATP (Km ATP), LRRKtide substrate, mean of several tests
# Summary of the method: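 GST-tagged truncated human LRRK2 G2019S (1.25 nM enzyme solution) was preincubated 15 min with compound, then reacted 90 min at ambient temperature with fluorescein-LRRKtide (400 nM solution) and 134 μM ATP (Km) in Tris pH 8.5. EDTA stop; Tb anti-phospho-LRRKtide TR-FRET (520/495 ratio). IC50 from 4-parameter fits, mean of several runs.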
# T1 sequence (Q5S007 970-2527 G2019S limits assumed): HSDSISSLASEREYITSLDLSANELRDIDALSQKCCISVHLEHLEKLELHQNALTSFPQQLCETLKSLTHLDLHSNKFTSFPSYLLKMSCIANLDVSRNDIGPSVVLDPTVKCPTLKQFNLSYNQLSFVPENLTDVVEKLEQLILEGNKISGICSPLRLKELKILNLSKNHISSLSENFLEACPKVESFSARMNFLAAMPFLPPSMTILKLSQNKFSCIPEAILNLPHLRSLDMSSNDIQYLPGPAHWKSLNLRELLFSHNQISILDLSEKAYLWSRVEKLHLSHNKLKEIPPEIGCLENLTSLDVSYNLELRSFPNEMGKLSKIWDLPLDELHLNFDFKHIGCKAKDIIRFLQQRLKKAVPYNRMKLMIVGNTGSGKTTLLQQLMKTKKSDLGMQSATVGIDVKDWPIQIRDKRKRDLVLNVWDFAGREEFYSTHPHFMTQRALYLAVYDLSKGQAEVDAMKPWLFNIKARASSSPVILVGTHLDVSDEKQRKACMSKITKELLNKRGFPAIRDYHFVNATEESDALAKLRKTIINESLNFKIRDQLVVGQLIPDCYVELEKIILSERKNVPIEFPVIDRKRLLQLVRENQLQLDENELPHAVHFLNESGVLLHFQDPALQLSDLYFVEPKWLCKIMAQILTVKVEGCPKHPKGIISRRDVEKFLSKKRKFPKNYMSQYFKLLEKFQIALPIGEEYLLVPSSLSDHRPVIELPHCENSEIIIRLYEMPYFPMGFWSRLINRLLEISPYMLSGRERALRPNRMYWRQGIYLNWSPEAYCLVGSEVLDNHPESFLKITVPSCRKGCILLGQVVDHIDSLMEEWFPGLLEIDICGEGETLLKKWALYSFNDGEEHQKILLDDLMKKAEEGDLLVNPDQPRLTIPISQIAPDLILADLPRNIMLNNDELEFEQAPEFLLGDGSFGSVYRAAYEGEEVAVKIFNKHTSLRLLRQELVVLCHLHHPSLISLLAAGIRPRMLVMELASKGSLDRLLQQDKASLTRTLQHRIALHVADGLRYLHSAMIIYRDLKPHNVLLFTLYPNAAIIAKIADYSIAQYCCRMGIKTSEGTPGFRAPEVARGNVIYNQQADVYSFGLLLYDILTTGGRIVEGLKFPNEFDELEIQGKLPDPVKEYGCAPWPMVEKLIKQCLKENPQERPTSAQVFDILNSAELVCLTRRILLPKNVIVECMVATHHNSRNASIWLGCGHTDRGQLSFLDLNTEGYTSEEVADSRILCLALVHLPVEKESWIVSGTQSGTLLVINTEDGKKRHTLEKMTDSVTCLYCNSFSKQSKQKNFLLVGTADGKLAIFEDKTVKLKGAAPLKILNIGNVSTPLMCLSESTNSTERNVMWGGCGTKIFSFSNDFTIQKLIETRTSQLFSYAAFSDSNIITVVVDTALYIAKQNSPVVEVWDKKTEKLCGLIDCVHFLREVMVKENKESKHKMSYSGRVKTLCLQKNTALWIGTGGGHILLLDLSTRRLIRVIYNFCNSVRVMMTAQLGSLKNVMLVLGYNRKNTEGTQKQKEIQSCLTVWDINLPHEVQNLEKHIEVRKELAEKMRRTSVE
row,Molecule,LRRK2 pIC50
1,Cc1cc2cnc(NC(=O)C3CC3c3ccccn3)cc2cc1N1CCN(C2(C)COCC2F)CC1 (centres unmarked) [Ex-9.19],10.09
2,"(3R or 3S)-N-[6-[4-((3R,4R or 3S,4S)-4-fluoro-3-methyl-tetrahydrofuran-3-yl)piperazin-1-yl]-7-methyl-3-isoquinolyl]-5,5-dimethyl-tetrahydrofuran-3-carboxamide [Ex-10.94]",9.40
3,Cc1cc2cnc(NC(=O)C3CC3c3ccccn3)cc2cc1N1CCN(C2(C)CCOC2)CC1 (centres unmarked) [Ex-9.21],10.09
4,"(1R,2R,3R, or 1R,2S,3R, or 1S,2R,3S, or 1S,2S,3S)-N-[7-chloro-6-[4-((3R,4R or 3S,4S)-4-fluoro-3-methyl-tetrahydrofuran-3-yl)piperazin-4-ium-1-yl]-3-isoquinolyl]-2-methyl-3-(2-pyridyl)cyclopropanecarboxamide [Ex-10.71]",7.72
5,CCC1C(C(=O)Nc2cc3cc(N4CCC(F)(C#N)CC4)c(Cl)cc3cn2)C1c1cnn(C)c1 (centres unmarked) [Ex-4.10],7.29

# Same assay, conditions: 134 μM ATP (Km ATP), LRRKtide substrate, mean of several tests, read-out: LRRK2 pIC50 (converted)
row,Molecule,IC50 [nM]
1,"CC1(N2CCN(c3cc4cc(NC(=O)C5CC56CC6(F)F)ncc4cc3Cl)CC2)COCC1O (single isomer, unassigned) [Ex-3.2]",1.07
2,"CC1(N2CCN(c3cc4cc(NC(=O)C5CC56CCC6)ncc4cc3Cl)CC2)COCC1O (single isomer, unassigned) [Ex-1.8, (1R or 1S)-N-(7-chloro-6-(4-((3R,4R or 3S,4S)-4-hydroxy-3-methyltetrahydrofuran-3-yl)piperazin-1-yl)isoquinolin-3-yl)spiro[2.3]hexane-1-carboxamide]",2.34
3,"Cc1cc2cnc(NC(=O)C3CC34CCOC4)cc2cc1N1CCN(C2(C)COCC2O)CC1 (single isomer, unassigned) [Ex-6.4, (1R, 3S or 1S,3R, or 1R,3S, or 1S,3S)-N-(6-(4-((3R, 4R or 3S,4S)-4-hydroxy-3-methyltetrahydrofuran-3-yl)piperazin-1-yl)-7-methylisoquinolin-3-yl)-5-oxaspiro[2.4]heptane-1-carboxamide]",1.07
4,"Cn1ncc(C2CC2C(=O)Nc2cc3cc(N4CCN(C5(C)COCC5F)CC4)c(Cl)cc3cn2)c1C(F)(F)F (single isomer, unassigned) [Ex-10.61, (1R,2R or 1S,2S)-N-[7-chloro-6-[4-((3R,4R or 3S,4S)-4-fluoro-3-methyl-tetrahydrofuran-3-yl)piperazin-4-ium-1-yl]-3-isoquinolyl]-2-[1-methyl-5-(trifluoromethyl)pyrazol-4-yl]cyclopropanecarboxamide]",3.02
5,"CC1(C#N)CCN(c2cc3cc(NC(=O)C4CC4c4cncnc4)ncc3cc2Cl)CC1 (single isomer, unassigned) [Ex-5.15]",6.17
6,"CC1(N2CCN(c3cc4cc(NC(=O)C5CC56CCOC6)ncc4cc3Cl)CC2)COCC1O (single isomer, unassigned) [Ex-2.10, (1R,3R or 1S,3S)-N-(7-chloro-6-(4-((3R,4R or 3S,4S)-4-hydroxy-3-methyltetrahydrofuran-3-yl)piperazin-1-yl)isoquinolin-3-yl)-5-oxaspiro[2.4]heptane-1-carboxamide]",0.589
7,"CC1(N2CCN(c3cc4cc(NC(=O)C5CC56CC6)ncc4cc3Cl)CC2)COCC1F (single isomer, unassigned) [Ex-10.80, (R or S)-N-[7-chloro-6-[4-((3R,4R or 3S,4S)-4-fluoro-3-methyl-tetrahydrofuran-3-yl)piperazin-1-yl]-3-isoquinolyl]spiro[2.2]pentane-2-carboxamide]",0.123
8,"CC1(N2CCN(c3cc4cc(NC(=O)C5CCC5C#N)ncc4cc3Cl)CC2)COCC1O (single isomer, unassigned) [Ex-10.39, (1R,2R of 1S,2S)-N-[7-chloro-6-[4-((3R,4R or 3S,4S)-4-hydroxy-3-methyl-tetrahydrofuran-3-yl)piperazin-1-yl]-3-isoquinolyl]-2-cyano-cyclobutanecarboxamide]",0.0813
9,"CC1C(C(=O)Nc2cc3cc(N4CCN(C5(C)CCOC5)CC4)c(Cl)cc3cn2)C1c1cnn(C)c1 (single isomer, unassigned) [Ex-9.9]",0.417
10,"CCOC1CC1C(=O)Nc1cc2cc(N3CCN(C4(C)COCC4O)CC3)c(Cl)cc2cn1 (single isomer, unassigned) [Ex-10.11]",0.851
11,"O=C(Nc1cc2cc(N3CCN(C4COCC4O)CC3)c(Cl)cc2cn1)C1CC12CCOCC2 (single isomer, unassigned) [Ex-2.5, (R or S)-N-(7-chloro-6-(4-((3R,4R or 3S,4S)-4-hydroxytetrahydrofuran-3-yl)piperazin-1-yl)isoquinolin-3-yl)-6-oxaspiro[2.5]octane-1-carboxamide]",41.7
12,"C[C@H]1CN(c2cc3cc(NC(=O)C4CC45CCOCC5)ncc3cc2Cl)CCN1C1(C)COCC1O (single isomer, unassigned) [Ex-2.20, (R or S)-N-(7-chloro-6-((S or R)-4-((3R,4R, or 3S,4S)-4-hydroxy-3-methyltetrahydrofuran-3-yl)-3-methylpiperazin-1-yl)isoquinolin-3-yl)-6-oxaspiro[2.5]octane-1-carboxamide]",0.178
13,"CC1(N2CCN(c3cc4cc(NC(=O)C5CCC56CCOCC6)ncc4cc3Cl)CC2)COCC1O (single isomer, unassigned) [Ex-1.28, (R or S)-N-(7-chloro-6-(4-((3R,4R or 3S,4S)-4-hydroxy-3-methyltetrahydrofuran-3-yl)piperazin-1-yl)isoquinolin-3-yl)-7-oxaspiro[3.5]nonane-1-carboxamide]",12
14,"CC(C)n1nccc1C1CC1C(=O)Nc1cc2cc(N3CCN(C4(C)COCC4O)CC3)c(Cl)cc2cn1 (single isomer, unassigned) [Ex-10.22, (1R,2R or 1S,2S)-N-[7-chloro-6-[4-((3R,4R or 3S,4S)-4-hydroxy-3-methyl-tetrahydrofuran-3-yl)piperazin-1-yl]-3-isoquinolyl]-2-(2-isopropylpyrazol-3-yl)cyclopropanecarboxamide]",2.69
15,"Cc1cc2cnc(NC(=O)C3C(C)C3c3cnn(C)c3)cc2cc1N1CCN(C2(C)CCOC2)CC1 (single isomer, unassigned) [Ex-9.12]",0.0813
16,"Cc1cc2cnc(NC(=O)C3C4CCOCC43)cc2cc1N1CCN(C2(C)CCOC2)CC1 (single isomer, unassigned) [Ex-10.46, (1S,6R,7R, 1R,6S,7R, or 1R, 6S,7S, or 1S,6S,7S)-N-(7-methyl-6-(4-((R or S)-3-methyltetrahydrofuran-3-yl)piperazin-1-yl)isoquinolin-3-yl)-3-oxabicyclo[4.1.0]heptane-7-carboxamide]",0.457
17,"Cc1cc2cnc(NC(=O)C3CC3c3ccccn3)cc2cc1N1CCN(C2(C)CCOC2)CC1 (single isomer, unassigned) [Ex-9.17]",1.29
18,"CC1COC(=O)N1c1ccc2cnc(NC(=O)C3CC3)cc2c1 (single isomer, unassigned) [Ex-4.1, (R or S)-N-(6-(4-methyl-2-oxooxazolidin-3-yl)isoquinolin-3-yl)cyclopropanecarboxamide]",3.47
19,"COC1COCC1(C)N1CCN(c2cc3cc(NC(=O)C4CC45CCOCC5)ncc3cc2Cl)CC1 (single isomer, unassigned) [Ex-5.4]",28.8
20,"CC1(N2CCN(c3cc4cc(NC(=O)C5CC56CCOCC6)ncc4cc3Cl)CC2)CCOC1 (single isomer, unassigned) [Ex-5.14]",302
21,"CC(C)(O)C1CC1C(=O)Nc1cc2cc(N3CCN(C4(C)COCC4O)CC3)c(Cl)cc2cn1 (single isomer, unassigned) [Ex-10.6]",0.141
22,"CCc1cc2cnc(NC(=O)C3CC34CCOCC4)cc2cc1N1CCN(C2(C)COCC2O)CC1 (single isomer, unassigned) [Ex-12, (R or S)-N-(7-ethyl-6-(4-(4-(3R,4R or 3S,4S)-hydroxy-3-methyltetrahydrofuran-3-yl)piperazin-1-yl)isoquinolin-3-yl)-6-oxaspiro[2.5]octane-1-carboxamide]",0.525
23,"C[C@]1(O)COC[C@@]1(C)N1CCN(c2cc3cc(NC(=O)[C@@H]4CC45CCOCC5)ncc3cc2Cl)CC1 (single isomer, unassigned) [Ex-17.2, (R) or (S)-N-(7-chloro-6-((3R,4R) or (3S,4S)-4-(4-hydroxy-3,4-dimethyltetrahydrofuran-3-yl)piperazin-1-yl)isoquinolin-3-yl)-6-oxaspiro[2.5]octane-1-carboxamide]",0.126
24,"CC1(C2CCOC2)CC1C(=O)Nc1cc2cc(N3CCN(C4(C)COCC4O)CC3)c(Cl)cc2cn1 (single isomer, unassigned) [Ex-10.87, (1R,2R or 1S,2S, or 1R,2S, or 1S,2R)-N-[7-chloro-6-[4-((3R,4R or 3S,4S)-4-hydroxy-3-methyl-tetrahydrofuran-3-yl)piperazin-1-yl]-3-isoquinolyl]-2-methyl-2-tetrahydrofuran-3-yl-cyclopropanecarboxamide]",0.0813
25,"CC1(N2CCN(c3cc4cc(NC(=O)C5CC5C(F)F)ncc4cc3Cl)CC2)COCC1F (single isomer, unassigned) [Ex-10.76, (1R,2R or 1S,2S)-N-[7-chloro-6-[4-((3R,4R or 3S,4S)-4-fluoro-3-methyl-tetrahydrofuran-3-yl)piperazin-1-yl]-3-isoquinolyl]-2-(difluoromethyl)cyclopropanecarboxamide]",0.0813
26,"CC1C(C(=O)Nc2cc3cc(N4CCN(C5(C)CCOC5)CC4)c(Cl)cc3cn2)C1c1cnn(C)c1 (single isomer, unassigned) [Ex-9.7]",0.0813
27,"CC(C)Cn1nccc1C1CC1C(=O)Nc1cc2cc(N3CCN(C4(C)COCC4O)CC3)c(Cl)cc2cn1 (single isomer, unassigned) [Ex-10.19, (1R,2R or 1S,2S)-N-[7-chloro-6-[4-((3R,4R or 3S,4S)-4-hydroxy-3-methyl-tetrahydrofuran-3-yl)piperazin-1-yl]-3-isoquinolyl]-2-(2-isobutylpyrazol-3-yl)cyclopropanecarboxamide]",42.7

# Reference: patent publication US12516039B2, “N-linked isoquinoline amides as LRRK2 inhibitors, pharmaceutical compositions, and uses thereof” (Merck Sharp & Dohme LLC, priority 2020, dated 2026)
